Experiments:
Assay type in all cases: functional
Rhodotorula mucilaginosa [1] = assay: Antifungal activity against Rhodotorula rubra DSM 70403 at 10 ug after 72 hrs by disk diffusion method; settings: DSM 70403, 72 h, read-out: IZ
Kluyveromyces marxianus [2] = assay: Antifungal activity against Kluyveromyces fragilis NRRL 2415 at 10 ug after 72 hrs by disk diffusion method; settings: NRRL 2415, 72 h, read-out: IZ
Candida albicans [3] = assay: Antifungal activity against Candida albicans ATCC 10231 at 10 ug after 72 hrs by disk diffusion method; settings: ATCC 10231, 72 h, read-out: IZ
Debaryomyces hansenii [4] = assay: Antifungal activity against Debaryomyces hansenii DSM 70238 at 10 ug after 72 hrs by disk diffusion method; settings: DSM 70238, 72 h, read-out: IZ
[5] = system: Hanseniaspora guilliermondii; assay: Antifungal activity against Hanseniaspora guilliermondii DSM 3432 at 10 ug after 72 hrs by disk diffusion method; settings: DSM 3432, 72 h, read-out: IZ
Rhodotorula mucilaginosa [6] = assay: Antifungal activity against Rhodotorula rubra DSM 70403 at 1 ug after 72 hrs by disk diffusion method; settings: DSM 70403, 72 h, read-out: IZ
Kluyveromyces marxianus [7] = assay: Antifungal activity against Kluyveromyces fragilis NRRL 2415 at 1 ug after 72 hrs by disk diffusion method; settings: NRRL 2415, 72 h, read-out: IZ
Candida albicans [8] = assay: Antifungal activity against Candida albicans ATCC 10231 at 1 ug after 72 hrs by disk diffusion method; settings: ATCC 10231, 72 h, read-out: IZ
[9] = system: Hanseniaspora guilliermondii; assay: Antifungal activity against Hanseniaspora guilliermondii DSM 3432 at 1 ug after 72 hrs by disk diffusion method; settings: DSM 3432, 72 h, read-out: IZ
Debaryomyces hansenii [10] = assay: Antifungal activity against Debaryomyces hansenii DSM 70238 at 1 ug after 72 hrs by disk diffusion method; settings: DSM 70238, 72 h, read-out: IZ
[11] = system: Mycolicibacterium smegmatis; assay: Antibacterial activity against Mycobacterium smegmatis CCM 2067 at 5 ug after 24 hrs by disk diffusion method; settings: CCM 2067, 24 h, read-out: IZ
Escherichia coli [12] = assay: Antibacterial activity against Escherichia coli ATCC 11230 at 5 ug after 24 hrs by disk diffusion method; settings: ATCC 11230, 24 h, read-out: IZ
Proteus vulgaris [13] = assay: Antibacterial activity against Proteus vulgaris ATCC 8427 at 5 ug after 24 hrs by disk diffusion method; settings: ATCC 8427, 24 h, read-out: IZ
Bacillus cereus [14] = assay: Antibacterial activity against Bacillus cereus ATCC 7064 at 5 ug after 24 hrs by disk diffusion method; settings: ATCC 7064, 24 h, read-out: IZ
Pseudomonas aeruginosa [15] = assay: Antibacterial activity against Pseudomonas aeruginosa ATCC 27853 at 5 ug after 24 hrs by disk diffusion method; settings: ATCC 27853, 24 h, read-out: IZ
Klebsiella pneumoniae [16] = assay: Antibacterial activity against Klebsiella pneumoniae UC57 at 5 ug after 24 hrs by disk diffusion method; settings: read-out: IZ
Listeria monocytogenes [17] = assay: Antibacterial activity against Listeria monocytogenes ATCC 15313 at 5 ug after 24 hrs by disk diffusion method; settings: ATCC 15313, 24 h, read-out: IZ
Micrococcus luteus [18] = assay: Antibacterial activity against Micrococcus luteus La 2971 at 5 ug after 24 hrs by disk diffusion method; settings: read-out: IZ
Staphylococcus aureus [19] = assay: Antibacterial activity against Staphylococcus aureus ATCC 6538 at 5 ug after 24 hrs by disk diffusion method; settings: ATCC 6538, 24 h, read-out: IZ
Bacillus cereus [20] = assay: Antibacterial activity against Bacillus cereus ATCC 7064 at 10 units after 24 hrs by disk diffusion method
Micrococcus luteus [21] = assay: Antibacterial activity against Micrococcus luteus La 2971 at 10 units after 24 hrs by disk diffusion method
Pseudomonas aeruginosa [22] = assay: Antibacterial activity against Pseudomonas aeruginosa ATCC 27853 at 10 units after 24 hrs by disk diffusion method
Proteus vulgaris [23] = assay: Antibacterial activity against Proteus vulgaris ATCC 8427 at 10 units after 24 hrs by disk diffusion method
[24] = system: Mycolicibacterium smegmatis; assay: Antibacterial activity against Mycobacterium smegmatis CCM 2067 at 10 units after 24 hrs by disk diffusion method
Listeria monocytogenes [25] = assay: Antibacterial activity against Listeria monocytogenes ATCC 15313 at 10 units after 24 hrs by disk diffusion method
Klebsiella pneumoniae [26] = assay: Antibacterial activity against Klebsiella pneumoniae UC57 at 10 units after 24 hrs by disk diffusion method
Escherichia coli [27] = assay: Antibacterial activity against Escherichia coli ATCC 11230 at 10 units after 24 hrs by disk diffusion method
Staphylococcus aureus [28] = assay: Antibacterial activity against Staphylococcus aureus ATCC 6538 at 10 units after 24 hrs by disk diffusion method
Listeria monocytogenes [29] = assay: Antibacterial activity against Listeria monocytogenes ATCC 15313 at 30 ug after 24 hrs by disk diffusion method; settings: ATCC 15313, 24 h, read-out: IZ
Klebsiella pneumoniae [30] = assay: Antibacterial activity against Klebsiella pneumoniae UC57 at 30 ug after 24 hrs by disk diffusion method; settings: read-out: IZ
Escherichia coli [31] = assay: Antibacterial activity against Escherichia coli ATCC 11230 at 30 ug after 24 hrs by disk diffusion method; settings: ATCC 11230, 24 h, read-out: IZ
[32] = system: Mycolicibacterium smegmatis; assay: Antibacterial activity against Mycobacterium smegmatis CCM 2067 at 30 ug after 24 hrs by disk diffusion method; settings: CCM 2067, 24 h, read-out: IZ
Staphylococcus aureus [33] = assay: Antibacterial activity against Staphylococcus aureus ATCC 6538 at 30 ug after 24 hrs by disk diffusion method; settings: ATCC 6538, 24 h, read-out: IZ
Proteus vulgaris [34] = assay: Antibacterial activity against Proteus vulgaris ATCC 8427 at 30 ug after 24 hrs by disk diffusion method; settings: ATCC 8427, 24 h, read-out: IZ
Micrococcus luteus [35] = assay: Antibacterial activity against Micrococcus luteus La 2971 at 30 ug after 24 hrs by disk diffusion method; settings: read-out: IZ
Bacillus cereus [36] = assay: Antibacterial activity against Bacillus cereus ATCC 7064 at 30 ug after 24 hrs by disk diffusion method; settings: ATCC 7064, 24 h, read-out: IZ
Pseudomonas aeruginosa [37] = assay: Antibacterial activity against Pseudomonas aeruginosa ATCC 27853 at 30 ug after 24 hrs by disk diffusion method; settings: ATCC 27853, 24 h, read-out: IZ

Work on Clc1ccccc1C(c1ccccc1)(c1ccccc1)n1ccnc1 [CLOTRIMAZOLE] yielded a zone of inhibition at 10 µg/disc (Rhodotorula mucilaginosa [1]) of 15 mm, a zone of inhibition at 10 µg/disc (Kluyveromyces marxianus [2]) of 16 mm and a zone of inhibition at 10 µg/disc (Candida albicans [3]) of 18 mm. It also gave a zone of inhibition at 10 µg/disc (Debaryomyces hansenii [4]) of 18 mm and a zone of inhibition at 10 µg/disc [5] of 22 mm.

Work on CC(=O)N1CCN(c2ccc(OCC3COC(Cn4ccnc4)(c4ccc(Cl)cc4Cl)O3)cc2)CC1 (configuration not stated) [KETOCONAZOLE] yielded a zone of inhibition at 1 µg/disc (Rhodotorula mucilaginosa [6]) of 21 mm, a zone of inhibition at 1 µg/disc (Kluyveromyces marxianus [7]) of 22 mm and a zone of inhibition at 1 µg/disc (Candida albicans [8]) of 16 mm. For the same molecule, the zone of inhibition at 1 µg/disc [9] was 24 mm and the zone of inhibition at 1 µg/disc (Debaryomyces hansenii [10]) was 14 mm.

For CC1COc2c(N3CCN(C)CC3)c(F)cc3c(=O)c(C(=O)O)cn1c23 (configuration not stated) [OFLOXACIN], the zone of inhibition at 5 µg/disc [11] was 32 mm, the zone of inhibition at 5 µg/disc (Escherichia coli [12]) was 30 mm and the zone of inhibition at 5 µg/disc (Proteus vulgaris [13]) was 28 mm. It also gave a zone of inhibition at 5 µg/disc (Bacillus cereus [14]) of 28 mm, a zone of inhibition at 5 µg/disc (Pseudomonas aeruginosa [15]) of 30 mm and a zone of inhibition at 5 µg/disc (Klebsiella pneumoniae [16]) of 28 mm. The zone of inhibition at 5 µg/disc (Listeria monocytogenes [17]) was 30 mm, the zone of inhibition at 5 µg/disc (Micrococcus luteus [18]) was 44 mm and the zone of inhibition at 5 µg/disc (Staphylococcus aureus [19]) was 24 mm.

In the case of CC1(C)S[C@@H]2[C@H](NC(=O)Cc3ccccc3)C(=O)N2[C@H]1C(=O)O [PENICILLIN G], the “inhibition zone (IZ)” value (Bacillus cereus [20]) is reported as 10 mm, the “inhibition zone (IZ)” value (Micrococcus luteus [21]) is reported as 8 mm and the “inhibition zone (IZ)” value (Pseudomonas aeruginosa [22]) is reported as 14 mm. For the same molecule, the “inhibition zone (IZ)” value (Proteus vulgaris [23]) was 36 mm, the “inhibition zone (IZ)” value [24] was 15 mm and the “inhibition zone (IZ)” value (Listeria monocytogenes [25]) was 10 mm. For the same molecule, the “inhibition zone (IZ)” value (Klebsiella pneumoniae [26]) was 18 mm, the “inhibition zone (IZ)” value (Escherichia coli [27]) was 18 mm and the “inhibition zone (IZ)” value (Staphylococcus aureus [28]) was 13 mm.

CN(C)[C@@H]1C(O)=C(C(N)=O)C(=O)[C@@]2(O)C(O)=C3C(=O)c4c(O)cccc4[C@@](C)(O)[C@H]3C[C@@H]12 [TETRACYCLINE] showed a zone of inhibition at 30 µg/disc (Listeria monocytogenes [29]) of 28 mm, a zone of inhibition at 30 µg/disc (Klebsiella pneumoniae [30]) of 30 mm and a zone of inhibition at 30 µg/disc (Escherichia coli [31]) of 28 mm. It also gave a zone of inhibition at 30 µg/disc [32] of 24 mm, a zone of inhibition at 30 µg/disc (Staphylococcus aureus [33]) of 26 mm and a zone of inhibition at 30 µg/disc (Proteus vulgaris [34]) of 22 mm. It also gave a zone of inhibition at 30 µg/disc (Micrococcus luteus [35]) of 34 mm, a zone of inhibition at 30 µg/disc (Bacillus cereus [36]) of 26 mm and a zone of inhibition at 30 µg/disc (Pseudomonas aeruginosa [37]) of 25 mm.
